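These data come from cells grown in 96-well plates and exposed to compound for 48 hours at five concentrations. TGI marks complete inhibition of growth.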

Some test systems named below: HCT-116 colon; HCT-15 colon; HS 578T breast; KM12 colon; LOX IMVI melanoma; NCI/ADR-RES ovarian; SF-295 CNS; SK-MEL-2 melanoma; TK-10 renal; UACC-62 melanoma.
Assay in all cases: NCI-60 cell line screen, 48 h

Take `CC(C)[C@H]1NC(=O)[C@H]2N=C(O[C@@H]2C)[C@@H]2CCCN2C(=O)[C@H](Cc2ccccc2)NC(=O)[C@@H]2CSC(=N2)[C@@H](Cc2ccccc2)NC(=O)[C@@H]2CSC1=N2`: the TGI with HCT-116 colon, with HCT-15 colon, with HS 578T breast, in the assay on KM12 colon, with LOX IMVI melanoma and in the assay on NCI/ADR-RES ovarian was over 100 µM throughout. For the same compound, the TGI with SF-295 CNS, with SK-MEL-2 melanoma, with TK-10 renal and in the assay with UACC-62 melanoma was over 100 µM in each case.

In the case of `COc1ccc2c(c1)nc1n2C(N)=Nc2ccccc2S1`, the TGI in the assay on HCT-116 colon is over 100 µM; with HCT-15 colon, over 100 µM; with HS 578T breast, over 100 µM; in the assay with KM12 colon it was 34.2 µM; in the assay with LOX IMVI melanoma it was over 72.8 µM; with NCI/ADR-RES ovarian, over 100 µM. Further, the TGI in the assay on SF-295 CNS is over 100 µM; in the assay on SK-MEL-2 melanoma, over 100 µM; in the assay with TK-10 renal, over 100 µM; in the assay with UACC-62 melanoma, over 74.4 µM.

`Cc1cc(Nc2ccc(N=Nc3ccc(O)c4ncccc34)cc2)nc(C)n1`: the TGI in the assay with HCT-116 colon was 44.6 µM; with HCT-15 colon, 36 µM; in the assay with HS 578T breast it was over 59.4 µM; with KM12 colon, 33.3 µM; in the assay with LOX IMVI melanoma, 43.8 µM; in the assay with NCI/ADR-RES ovarian, 61 µM. Besides, the TGI in the assay on SF-295 CNS was over 80.4 µM; with SK-MEL-2 melanoma, 34.4 µM; in the assay with TK-10 renal it was 50.2 µM; with UACC-62 melanoma, 24.6 µM.

Turning to `Cc1cc(NS(=O)(=O)c2ccc(NC(=O)c3cccc4c(NNc5ccc(S(=O)(=O)N=C(N)N)cc5)c5ccccc5nc34)cc2)no1`, the TGI in the assay on HCT-116 colon, in the assay on HCT-15 colon, in the assay with HS 578T breast, in the assay with KM12 colon, in the assay with LOX IMVI melanoma and in the assay with NCI/ADR-RES ovarian was over 100 µM in each case. The TGI was over 100 µM with SF-295 CNS, 64.2 µM in the assay on SK-MEL-2 melanoma, over 100 µM in the assay on TK-10 renal and over 100 µM in the assay with UACC-62 melanoma.

For `CC(NC(=O)OCc1ccccc1)NC(=O)C(CC(=O)OC(C)(C)C)NC(=O)OC(C)(C)C` (stereo not given), the TGI in the assay on HCT-116 colon, in the assay with HCT-15 colon, with HS 578T breast, in the assay on KM12 colon, in the assay on LOX IMVI melanoma and with NCI/ADR-RES ovarian was over 100 µM in each case. Moreover, the TGI in the assay with SF-295 CNS, in the assay with SK-MEL-2 melanoma, in the assay on TK-10 renal and in the assay with UACC-62 melanoma was over 100 µM each time.

`Cc1nccn1S(=O)(=O)c1ccc(Br)cc1Br`: the TGI in the assay on HCT-116 colon was over 100 µM; in the assay with HCT-15 colon, over 100 µM; in the assay with HS 578T breast, over 100 µM; with KM12 colon, 88.7 µM; with LOX IMVI melanoma, over 100 µM; with NCI/ADR-RES ovarian, over 100 µM. Moreover, the TGI with SF-295 CNS was 93.1 µM; in the assay with SK-MEL-2 melanoma, 55 µM; in the assay on TK-10 renal, over 100 µM; in the assay on UACC-62 melanoma it was over 100 µM.

As to `N#CC(C#N)=Cc1c(O)ccc2ccccc12`, the TGI in the assay on HCT-116 colon was 30.9 µM; in the assay with HCT-15 colon, 37.5 µM; in the assay on HS 578T breast, 55.5 µM; in the assay with KM12 colon, 33.3 µM; in the assay on LOX IMVI melanoma it was 26.6 µM; in the assay on NCI/ADR-RES ovarian, 64.7 µM. The TGI in the assay on SF-295 CNS amounted to 29.5 µM; in the assay on SK-MEL-2 melanoma, 37.8 µM; with TK-10 renal, 32.2 µM; in the assay with UACC-62 melanoma, 31.1 µM.

`CC(NC1=NCCO1)c1cccc([N+](=O)[O-])c1` (stereo not given): the TGI in the assay on HCT-116 colon, with HCT-15 colon, in the assay on HS 578T breast, in the assay on KM12 colon, in the assay with LOX IMVI melanoma and in the assay on NCI/ADR-RES ovarian was over 100 µM throughout. Moreover, the TGI in the assay with SF-295 CNS, with SK-MEL-2 melanoma, in the assay with TK-10 renal and in the assay on UACC-62 melanoma was over 100 µM each time.

With `COC(=O)c1ccccc1C#CCCCOS(C)(=O)=O`, the TGI in the assay on HCT-116 colon, in the assay with HCT-15 colon, in the assay with HS 578T breast, with KM12 colon, with LOX IMVI melanoma and in the assay on NCI/ADR-RES ovarian was over 10 µM in each case. In addition, the TGI in the assay on SF-295 CNS, with SK-MEL-2 melanoma, in the assay with TK-10 renal and in the assay on UACC-62 melanoma was over 10 µM in each case.

On to `N/N=C1/C(=N/O)CCc2nonc21`, for which the TGI in the assay with HCT-116 colon, in the assay on HCT-15 colon, in the assay with HS 578T breast, in the assay with KM12 colon, in the assay with LOX IMVI melanoma and with NCI/ADR-RES ovarian was over 100 µM in each case. Further, the TGI in the assay on SF-295 CNS, with SK-MEL-2 melanoma, with TK-10 renal and in the assay with UACC-62 melanoma was over 100 µM throughout.

On to `COc1ccc(C(=C(I)c2ccccc2)c2ccc(OC)cc2)cc1`, for which the TGI with HCT-116 colon, in the assay on HCT-15 colon, in the assay on HS 578T breast, with KM12 colon, in the assay with LOX IMVI melanoma and with NCI/ADR-RES ovarian was over 100 µM each time. Also, the TGI in the assay with SF-295 CNS, in the assay on SK-MEL-2 melanoma, in the assay with TK-10 renal and in the assay on UACC-62 melanoma was over 100 µM throughout.

Consider `O=c1[nH]c2cc3cccnc3c(Cl)c2nc1C(F)(F)F`, for which the TGI with HCT-116 colon is over 100 µM; in the assay on HCT-15 colon, over 100 µM; with HS 578T breast, over 100 µM; in the assay with KM12 colon it was 63.7 µM; in the assay on LOX IMVI melanoma, over 100 µM; with NCI/ADR-RES ovarian, over 100 µM. Also, the TGI with SF-295 CNS, in the assay with SK-MEL-2 melanoma, in the assay with TK-10 renal and with UACC-62 melanoma was over 100 µM in each case.

(Values after PubChem BioAssay (NCI).)
